Reference: patent publication US12280040B2, “Compositions and methods of a dihydroisoxazole compound that reduces ectoparasite infestations on fish” (EVAH Atlantic Inc., priority 2023, dated 2025)

How the values were obtained:
[1] = test system: Lepeophtheirus salmonis; experiment: Duration of efficacy: medicated feed, then sea lice infestation of Atlantic salmon at 8 or 17 DPT (Example 2); format: in vivo; conditions: for percent efficacy for total sea lice, across counts: cohort infested at 8 DPT
Protocol: A randomized, blinded, parallel-group, negative-controlled study was conducted in which, the active ingredient was administered to Atlantic salmon at three dose rate (0 mg/kg/day, 0.025 mg/kg/day, and 0.060 mg/kg/day administered in medicated feed for 7 consecutive days. Following the treatment, the fish were intentionally infested with sea lice either 8 or 17 DPT, all within a controlled laboratory environment with seawater. The evaluation of efficacy for each cohort occurred at three specific timepoints post-infestation by comparing lice counts between the groups that received treatment and the untreated control groups.
Healthy Atlantic salmon post-smolts (n=1080) were selected for enrollment and distributed sequentially across eighteen (18) study tanks. Fish were weighed individually during the allocation of fish to tanks on study day (SD) −55&−56. Fish were weighed again on SD −19 to estimate the average weight of all fish and used to determine the feeding amount during the treatment period (SD 0−+6). The mean weight of fish prior to treatment was 716.1±152.5 g. Fish in the cohort infested 8 DPT were additionally weighed on SD +8, +14, +27, +35, +41 and +48. Fish in the cohort infested 17 DPT were additionally weighed on SD +8, +23, +36, +44, +50, and +57. For both cohorts SD 0 served as the first day of treatment.
Atlantic salmon post-smolts at each infestation time (8 or 17 DPT) were infested once with about 100 copepodids (Lepeophtheirus salmonis) per fish. During the study the water temperature varied between 9 and 13° C., and the water oxygen saturation was above 80%.
Three treatment groups were randomly assigned to eighteen study tanks by blocking the paired tank rows for the 8 and 17 DPT exposure. Study personnel were blinded as to the identity of the treatments for each tank.
Sea lice were counted three times during the study. […] The counts were strategically scheduled to ensure the presence of life stages, including chalimus, pre-adult, and adult stages, in at least one of the three counts within the negative control treatment. At all timepoints 10 fish were euthanized and lice counted.
Medicated feed was prepared by dry coating commercially available fish feed pellets with a premix containing the active ingredient to reach a content of about 4.2 and 10.0 mg/kg. The fish pellets were then coated with feed grade herring fish oil at an inclusion rate of about 0.75% w/w (7.5 g/kg feed) The consumption rate of the medicated feed was set to 0.6% body weight.
For the cohort infested at 8 DPT and the cohort infested at 17 DPT, treatment efficacy was computed for total number of sea lice/fish and total number of mobile life stages, i.e., preadult & adult sea lice/fish for each sea lice counting occasion (Count I, II & III). For the total number of attached/fish, treatment efficacy was computed at Count I only. Percent efficacy was computed using Abbott's formula for each treatment group compared to control as follows: percent efficacy=100*(MC−MT)/MC, where MC and MT are the arithmetic means of sea lice counts in the untreated control and S-roxapin-treated groups, respectively.
Treatments were considered efficacious when the percent efficacy was ≥90% for treated groups compared to untreated control groups. The mean sea lice abundance was reported for different parasite life stages (attached, mobile, and total (attached and mobile together)) and computed as the number of lice on salmon divided by the number of sampled fish per tank. The attached category included chalimus I & II stages. The mobile category included pre-adult and adult life stages of both males and females. The numbers of mobile, attached, and total lice were considered in this study.

[2] = test system: sea lice; experiment: First set of experiments: medicated feed over 7 consecutive days to salmon, sea lice infestation; format: in vivo; conditions: all dose rates 0.050, 0.125, 0.250 mg/kg/d in medicated feed over 7 consecutive days to salmon
Protocol: The inventors conducted a first set of experiments with administration in medicated feed over 7 consecutive days to salmon of 0.050, 0.125, 0.250 mg/kg/d to determine a non-therapeutic dosage for control or treatment of sea lice infestation. As these lower dosages represented a large reduction in concentration to that described in U.S. Pat. No. 9,920,037 (1.0 mg/kg/d) and, as well, represented concentrations well below the dosage for related IOB products for dogs, cats and poultry approved between 2014 and 2021 by such regulatory authorities as the U.S. Food and Drug Administration, Health Canada, and the European Medicines Agency, it was reasonable to expect to find a non-therapeutic dosage at the lower dosages tested.

[3] = 0.025 mg/kg/day in feed 7 d, infested 8 DPT, Count I (21DPI)
[4] = 0.025 mg/kg/day in feed 7 d, infested 8 DPT, Count III (34 DPI)
[5] = 0.025 mg/kg/day in feed 7 d, infested 17 DPT, Count I (21DPI)
[6] = 0.025 mg/kg/day in feed 7 d, infested 17 DPT, Count III (34 DPI)
[7] = 0.060 mg/kg/day in feed 7 d, infested 8 DPT, Count I (21DPI)
[8] = 0.060 mg/kg/day in feed 7 d, infested 8 DPT, Count III (34 DPI)
[9] = 0.060 mg/kg/day in feed 7 d, infested 17 DPT, Count I (21DPI)
[10] = 0.060 mg/kg/day in feed 7 d, infested 17 DPT, Count III (34 DPI)

C#CCNC(=O)CNC(=O)c1sc(C2=NO[C@@](c3cc(Cl)c(Cl)c(Cl)c3)(C(F)(F)F)C2)cc1C [S-roxapin, (S)-3-methyl-N-(2-oxo-2-(prop-2-yn-1-ylamino)ethyl)-5-(5-(3,4,5-trichlorophenyl)-5-(trifluoromethyl)-4,5-dihydroisoxazol-3-yl)thiophene-2-carboxamide]
Number of Attached Lice/Fish % Efficacy [1, 3]: 92.5%
Number of Attached Lice/Fish Mean ± SD [1, 3]: 1.6 ± 2.0 lice/fish
Number of Mobile Lice/Fish % Efficacy [1, 3]: 87.2%
Number of Mobile Lice/Fish Mean ± SD [1, 3]: 1.0 ± 1.3 lice/fish
Total Number of Lice/Fish % Efficacy [1, 3]: 91.1%
Total Number of Lice/Fish Mean ± SD [1, 3]: 2.6 ± 2.9 lice/fish
Number of Attached Lice/Fish Mean ± SD [1, 4]: 0.0 ± 0.0 lice/fish
Number of Mobile Lice/Fish % Efficacy [1, 4]: 91.8%
Number of Mobile Lice/Fish Mean ± SD [1, 4]: 2.5 ± 2.8 lice/fish
Total Number of Lice/Fish % Efficacy [1, 4]: 91.8%
Total Number of Lice/Fish Mean ± SD [1, 4]: 2.5 ± 2.8 lice/fish
Number of Attached Lice/Fish % Efficacy [1, 5]: 21.2%
Number of Attached Lice/Fish Mean ± SD [1, 5]: 2.7 ± 1.9 lice/fish
Number of Mobile Lice/Fish % Efficacy [1, 5]: −10.1%
Number of Mobile Lice/Fish Mean ± SD [1, 5]: 24.4 ± 8.8 lice/fish
Total Number of Lice/Fish % Efficacy [1, 5]: −5.9%
Total Number of Lice/Fish Mean ± SD [1, 5]: 27.1 ± 9.0 lice/fish
Number of Attached Lice/Fish Mean ± SD [1, 6]: 0.0 ± 0.0 lice/fish
Number of Mobile Lice/Fish % Efficacy [1, 6]: −16.2%
Number of Mobile Lice/Fish Mean ± SD [1, 6]: 32.1 ± 12.1 lice/fish
Total Number of Lice/Fish % Efficacy [1, 6]: −16.0%
Total Number of Lice/Fish Mean ± SD [1, 6]: 32.1 ± 12.1 lice/fish
percent efficacy for total sea lice, across counts ([1]; 0.025 mg/kg/day): above 86.8%
efficacy for mobile lice ([1]; 0.025 mg/kg/day, cohort infested at 17 DPT): no efficacy
efficacy for total sea lice ([1]; 0.025 mg/kg/day, cohort infested at 17 DPT (printed: in DOE14)): No efficacy
Number of Attached Lice/Fish % Efficacy [1, 7]: 99.8%
Number of Attached Lice/Fish Mean ± SD [1, 7]: 0.0 ± 0.2 lice/fish
Number of Mobile Lice/Fish % Efficacy [1, 7]: 99.6%
Number of Mobile Lice/Fish Mean ± SD [1, 7]: 0.0 ± 0.2 lice/fish
Total Number of Lice/Fish % Efficacy [1, 7]: 99.8%
Total Number of Lice/Fish Mean ± SD [1, 7]: 0.1 ± 0.3 lice/fish
Number of Attached Lice/Fish Mean ± SD [1, 8]: 0.0 ± 0.0 lice/fish
Number of Mobile Lice/Fish % Efficacy [1, 8]: 100%
Number of Mobile Lice/Fish Mean ± SD [1, 8]: 0.0 ± 0.0 lice/fish
Total Number of Lice/Fish % Efficacy [1, 8]: 100%
Total Number of Lice/Fish Mean ± SD [1, 8]: 0.0 ± 0.0 lice/fish
Number of Attached Lice/Fish % Efficacy [1, 9]: 46.2%
Number of Attached Lice/Fish Mean ± SD [1, 9]: 1.9 ± 1.6 lice/fish
Number of Mobile Lice/Fish % Efficacy [1, 9]: 18.5%
Number of Mobile Lice/Fish Mean ± SD [1, 9]: 18.0 ± 6.1 lice/fish
Total Number of Lice/Fish % Efficacy [1, 9]: 22.3%
Total Number of Lice/Fish Mean ± SD [1, 9]: 19.9 ± 6.1 lice/fish
Number of Attached Lice/Fish Mean ± SD [1, 10]: 0.0 ± 0.0 lice/fish
Number of Mobile Lice/Fish % Efficacy [1, 10]: 23.0%
Number of Mobile Lice/Fish Mean ± SD [1, 10]: 21.3 ± 9.0 lice/fish
Total Number of Lice/Fish % Efficacy [1, 10]: 23.1%
Total Number of Lice/Fish Mean ± SD [1, 10]: 21.3 ± 9.0 lice/fish
percent efficacy for total sea lice, across counts ([1]; 0.060 mg/kg/day): above 99.2%
effectiveness in reducing sea lice burdens [2]: ~100%
